Reference: ChEMBL document CHEMBL4689842, “EUbOPEN Chemogenomics Library wave 1” (2021)

Assays:
Type in all cases: toxicity, cell-based
HEK-293T = test: Incucyte cell viability with HEK293T; settings: human, 10 µM, compound concentration 10 uM
Fibroblast = test: Incucyte cell viability with human fibroblast; settings: 10 µM, compound concentration 10 uM
U2OS = test: Incucyte cell viability with U2OS; settings: human, 10 µM, compound concentration 10 uM
[1] = 0 h, replicate number 1, timepoint 0 hours
[2] = 6 h, replicate number 1, timepoint 6 hours
[3] = 6 h, replicate number 2, timepoint 6 hours
[4] = 12 h, replicate number 1, timepoint 12 hours
[5] = 12 h, replicate number 2, timepoint 12 hours
[6] = 18 h, replicate number 1, timepoint 18 hours
[7] = 24 h, replicate number 1, timepoint 24 hours
[8] = 0 h, replicate number 2, timepoint 0 hours
[9] = 18 h, replicate number 2, timepoint 18 hours
[10] = 24 h, replicate number 2, timepoint 24 hours
Also: filed as whole numbers so only -1 and 0 and 1 occur.

Row | SMILES | Growth Rate (HEK-293T; [1]) | Growth Rate (HEK-293T; [2]) | Growth Rate (HEK-293T; [4]) | Growth Rate (HEK-293T; [5]) | Growth Rate (HEK-293T; [6]) | Growth Rate (HEK-293T; [7]) | Growth Rate (Fibroblast; [1]) | Growth Rate (Fibroblast; [8]) | Growth Rate (Fibroblast; [2]) | Growth Rate (Fibroblast; [4]) | Growth Rate (Fibroblast; [6]) | Growth Rate (Fibroblast; [9]) | Growth Rate (Fibroblast; [7]) | Growth Rate (U2OS; [8]) | Growth Rate (U2OS; [2]) | Growth Rate (U2OS; [4]) | Growth Rate (U2OS; [6]) | Growth Rate (U2OS; [7]) | Growth Rate (U2OS; [1]) | Growth Rate (HEK-293T; [10]) | other results
1 | COc1ccc(C2(O)OC(=O)C(c3ccc4c(c3)OCO4)=C2Cc2cc(OC)c(OC)c(OC)c2)cc1 (centres undefined) [PD-156707] | 0 | 1 | 1 | 0 | 0 | 0 | 1 | 0 | 0 | 0 | 0 | 1 | 0 | 1 | 1 | 0 | 0 | 0 |  |  | Growth Rate (HEK-293T; [3]): 0; Growth Rate (Fibroblast; [10]): 1; Growth Rate (U2OS; [5]): 1; Growth Rate (U2OS; [9]): 1; Growth Rate (U2OS; [10]): 1
2 | CC(C)S(=O)(=O)c1ccc2nccc(Nc3ccc4scnc4c3)c2c1 |  | 0 | 0 |  | 0 | 0 |  | 0 | 0 | 0 | 0 |  | 0 | 0 | 0 | 1 | 0 | 1 | 1 |  | Growth Rate (U2OS; [9]): 1
3 | CNCCN1CCC(OCc2ccccc2)CC1 | 1 |  |  | 1 | 1 | 1 |  | 0 | 0 | 0 | 0 |  | 1 | 0 | 1 | 1 | 1 | 1 |  |  | Growth Rate (HEK-293T; [8]): 0; Growth Rate (HEK-293T; [3]): 1; Growth Rate (Fibroblast; [3]): 1; Growth Rate (Fibroblast; [5]): 1
4 | CN(C)[C@@H]1CCN(c2cc(-c3ccccc3)nc3ccnn23)C1 [(R)-ZINC-3573] | 0 | 1 | 1 |  | 1 | 1 | 0 |  | 0 | 1 | 1 | 0 | 1 |  |  | 1 | 0 | 1 |  | 0 | Growth Rate (U2OS; [3]): 0; Growth Rate (U2OS; [5]): 0; Growth Rate (U2OS; [9]): 1
5 | C=C1/C(=C\C=C2/CCC[C@]3(C)[C@@H]([C@H](C)/C=C/C=C/C(O)(CC)CC)CC[C@@H]23)C[C@@H](O)C[C@@H]1O [SEOCALCITOL] | 0 | 1 | 0 |  | 0 | 0 | 0 |  |  |  |  | 1 | 1 | 1 |  | 1 | 1 | 1 |  |  | Growth Rate (HEK-293T; [3]): 0; Growth Rate (Fibroblast; [3]): 0; Growth Rate (Fibroblast; [5]): 0; Growth Rate (U2OS; [3]): 0; Growth Rate (U2OS; [9]): 0; Growth Rate (U2OS; [10]): 0
6 | O=C(NCc1ncc(C(F)(F)F)cc1Cl)c1ccc2c(c1)C1(CCS(=O)(=O)CC1)[C@H](C1CC1)N2S(=O)(=O)c1ccc(F)cc1 [BAY-784] | 0 | 1 | 1 | 0 | 1 | 1 | 0 |  | 0 | 1 |  | 1 | 1 |  | 1 | 0 | 0 | 0 | 0 | 0 | Growth Rate (HEK-293T; [9]): 0; Growth Rate (U2OS; [3]): 0; Growth Rate (U2OS; [5]): 1; Growth Rate (U2OS; [10]): 1
7 | O=C(NCCCN1CCOC1=O)c1cnc(NCc2cc(Br)ccc2Br)nc1NC1CCCC1 | 0 | 1 |  | 1 | 1 | 1 |  |  | 0 | 0 | 0 |  | 0 |  | 1 | 1 | 0 | 1 | 0 | 0 | 
8 | CN1C(=O)[C@@H](N2CCc3cn(Cc4ccccc4)nc3C2=O)COc2ccccc21 [TP-030-1] | 0 |  |  |  |  |  |  | 1 | 0 | 0 | 0 |  | 0 | 0 | 1 | 1 | 1 | 1 |  | 1 | Growth Rate (HEK-293T; [8]): 1
9 | O=C(O)[C@@H]1[C@@H](Cn2nnc3ccccc3c2=O)CC[C@H]1C(=O)c1ccc(OCCC2CCOCC2)cc1 [BAY-694] | 0 | 0 |  | 0 | 1 | 1 | 0 | 1 | 0 | 1 | 1 | 0 | 0 |  | 0 | 1 | 0 | 1 | 0 |  | Growth Rate (HEK-293T; [8]): 1; Growth Rate (HEK-293T; [3]): 1; Growth Rate (Fibroblast; [5]): 0; Growth Rate (Fibroblast; [10]): 1; Growth Rate (U2OS; [10]): 0
10 | Cc1c(OCc2cccc(-c3ccc(C(=O)O)cc3)c2)cc2c(c1C)C(=O)C(C1CCCC1)C2 (centres undefined) | 0 | 0 | 0 |  | 0 | 0 | 0 |  | 0 | 0 | 0 |  | 0 |  |  | 1 | 1 | 1 | 0 | 1 | 
